Where two headings read alike, the source gives them in different places.
What was measured:
pLai RLuc reporter virus = assay: microbe, parasite or virus in culture; type: cell-based, HIV; conditions: Human immunodeficiency virus 1, 72 h
Method: To quantify the amount of protein binding to human serum, compounds were serially diluted (1:3) in DMSO and acoustically transferred onto 384-well assay plates via a Labcyte ECHO robot. Each plate contained up to 8 test compounds, including negative and positive controls, (DMSO, 5 μM AZT respectively). Assay plates were prepared in duplicate, and tested in either CCM (cell culture media) or HS/CCM (human serum/cell culture media). MT-4 cells were first pre-infected with pLai RLuc reporter virus for 2 h at 37° C., then further diluted in either CCM (RPMI media, 10% FBS, 1% P/S) or HS/CCM (RPMI media, 10% FBS, 50% HS, 1% P/S), and subsequently added to each plate using a Biotek Micro Flow dispenser. After a 72-h incubation in a humidified and temperature controlled incubator (37° C.), Renilla Glo (Promega) was added to all assay plates and chemiluminescence read using an Envision plate-reader. […] To determine the amount of protein binding, EC50 fold shifts (or EC50 shifts) were calculated by dividing EC50 (HS/CCM)/EC50 (CCM).

HIV-1 (IIIB) = assay: Antiviral assay in MT-4 cells (HIV MT-4 antiviral assay); type: cell-based; conditions: Human immunodeficiency virus 1, IIIB, MT4, 120 h, HIV-1 (IIIB) in MT-4 cells, 5 days incubation; read-out: EC50
Summary of the method: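 MT-4 cells infected with HIV-1 IIIB (1:250 diluted stock) and exposed to 1:3 serially diluted compound in RPMI with 10% FBS. Viability read by CellTiter-Glo luminescence after 5 days at 37° C; mock-infected cells and 5 μM AZT as controls.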

[1] = Cytotoxicity assay in MT-4 cells; type: cell-based, human; conditions: human, uninfected MT-4 cells, 5 days incubation; read-out: CC50
Summary of the method: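 Infected MT-4 cells (HIV-1 IIIB, fresh 1:250 dilution of concentrated stock) or mock-infected cells exposed to compounds for 5 days at 37 °C. Viability by CellTiter-Glo luminescence; 5 μM AZT positive control, no-drug negative control. Uninfected cells used for cytotoxicity, with 10 μM puromycin as base-level cytotoxicity control.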

[2] = read-out: Antiviral Serum Shift RLuc 50% HS, HS/CCM (RPMI media, 10% FBS, 50% HS, 1% P/S), 72-h incubation
[3] = read-out: Antiviral Serum Shift RLuc CCM, CCM (RPMI media, 10% FBS, 1% P/S), 72-h incubation

Row | Structure (SMILES) | EC50 (pLai RLuc reporter virus; [2]) | EC50 (pLai RLuc reporter virus; [3]) | EC50 (HIV-1 (IIIB)) | CC50 at 5 days [1]
1 | O=C(NCc1c(F)cc(F)cc1F)c1cn2c(c(O)c1=O)C(=O)N1CCCC[C@@H]2C1 [Example 26-1, (7R)-12-hydroxy-1,11-dioxo-N-(2,4,6-trifluorobenzyl)-1,4,5,6,7,11-hexahydro-3H-2,7-methanopyrido[1,2-a][1,4]diazonine-10-carboxamide] | 33.4 nM | 0.354 nM | 1.4 nM | 15900 nM
2 | C[C@@H]1CC[C@H]2CN(C(=O)c3c(O)c(=O)c(C(=O)NCc4c(F)cc(F)cc4F)cn32)[C@H]1C [Example 108-1, (3S,4R,7S)-12-hydroxy-3,4-dimethyl-1,11-dioxo-N-(2,4,6-trifluorobenzyl)-1,4,5,6,7,11-hexahydro-3H-2,7-methanopyrido[1,2-a][1,4]diazonine-10-carboxamide] | 1.31 nM | 0.2 nM | 0.997 nM | 16100 nM
3 | O=C(NCc1ccc(F)cc1F)c1cn2c(c(O)c1=O)C(=O)N1C[C@@H](F)CC[C@H]2C1 (single isomer, unassigned) [Example 53-2] | 2.27 nM | 1.58 nM | 6.2 nM | 28400 nM
4 | O=C(NCc1c(F)cc(F)cc1F)c1cn2c(c(O)c1=O)C(=O)N1CCC=C[C@H]2C1 [Example 109-2, (7S)-12-hydroxy-1,11-dioxo-N-(2,4,6-trifluorobenzyl)-1,4,7,11-tetrahydro-3H-2,7-methanopyrido[1,2-a][1,4]diazonine-10-carboxamide] | 4.34 nM | 0.236 nM | 1.47 nM | 11800 nM
5 | O=C(NCc1ccc(F)c(Cl)c1F)c1cn2c(c(O)c1=O)C(=O)N1Cc3cc(F)c(F)cc3C[C@@H]2C1 [Example 139-1, (6R)—N-(3-chloro-2,4-difluorobenzyl)-9,10-difluoro-1-hydroxy-2,14-dioxo-2,7,12,14-tetrahydro-6H-6,13-methanobenzo[f]pyrido[1,2-a][1,4]diazonine-3-carboxamide] | 84.3 nM | 3.93 nM | 14.8 nM | > 50000 nM
6 | C[C@H]1CC(F)C[C@H]2CN1C(=O)c1c(O)c(=O)c(C(=O)NCc3c(F)cc(F)cc3F)cn12 (stereo partly drawn) [Example 84, (3S,7S)-5-fluoro-12-hydroxy-3-methyl-1,11-dioxo-N-(2,4,6-trifluorobenzyl)-1,4,5,6,7,11-hexahydro-3H-2,7-methanopyrido[1,2-a][1,4]diazonine-10-carboxamide] | 1.36 nM | 0.427 nM | 2.01 nM | 37200 nM
7 | Cn1cc2c(n1)CC[C@H]1CN2C(=O)c2c(O)c(=O)c(C(=O)NCc3c(F)cc(F)cc3F)cn21 [Example 85-1, (11S)-6-hydroxy-2-methyl-5,7-dioxo-N-(2,4,6-trifluorobenzyl)-2,5,7,11,12,13-hexahydro-4,11-methanopyrazolo[4,3-e]pyrido[1,2-a][1,4]diazonine-8-carboxamide] | 1.57 nM | 1.06 nM | 5.64 nM | > 49900 nM
8 | CC1=CC[C@H]2CN(C(=O)c3c(O)c(=O)c(C(=O)NCc4c(F)cc(F)cc4F)cn32)[C@H]1C [Example 144-2, (3S,7S)-12-hydroxy-3,4-dimethyl-1,11-dioxo-N-(2,4,6-trifluorobenzyl)-1,6,7,11-tetrahydro-3H-2,7-methanopyrido[1,2-a][1,4]diazonine-10-carboxamide] | 4.46 nM | 0.469 nM | 1.98 nM | 13900 nM
9 | O=C(NCc1ccc(F)cc1F)c1cn2c(c(O)c1=O)C(=O)N1CC[C@@H](F)C[C@H]2C1 [Example 56-2, (5R,7S)—N-(2,4-difluorobenzyl)-5-fluoro-12-hydroxy-1,11-dioxo-1,4,5,6,7,11-hexahydro-3H-2,7-methanopyrido[1,2-a][1,4]diazonine-10-carboxamide] | 1.08 nM | 0.401 nM | 1.86 nM | 17800 nM
10 | C[C@H]1C(F)=CC[C@H]2CN1C(=O)c1c(O)c(=O)c(C(=O)NCc3c(F)cc(F)cc3F)cn12 [Example 154-1, (3S,7S)-4-fluoro-12-hydroxy-3-methyl-1,11-dioxo-N-(2,4,6-trifluorobenzyl)-1,6,7,11-tetrahydro-3H-2,7-methanopyrido[1,2-a][1,4]diazonine-10-carboxamide] | 4.29 nM | 0.297 nM | 1.64 nM | 25700 nM
11 | O=C(NCc1c(F)cc(F)cc1F)c1cn2c(c(O)c1=O)C(=O)N1C[C@@H]2CCCc2ccccc21 [Example 80-1, (6S)-1-hydroxy-2,15-dioxo-N-(2,4,6-trifluorobenzyl)-2,6,7,8,9,15-hexahydro-6,14-methanobenzo[e]pyrido[1,2-a][1,4]diazecine-3-carboxamide] | 0.651 nM | 0.348 nM | 2.24 nM | 10400 nM
12 | O=C(NCc1c(F)cc(F)cc1F)c1cn2c(c(O)c1=O)C(=O)N1CCC(F)=C[C@H]2C1 [Example 121, (7S)-5-fluoro-12-hydroxy-1,11-dioxo-N-(2,4,6-trifluorobenzyl)-1,4,7,11-tetrahydro-3H-2,7-methanopyrido[1,2-a][1,4]diazonine-10-carboxamide] | 0.505 nM | 0.235 nM | 1.76 nM | 24800 nM
13 | O=C(NCc1c(F)cc(F)cc1F)c1cn2c(c(O)c1=O)C(=O)N1C[C@@H]3CC[C@@H](C3)[C@@H]2C1 [Example 41-2, (4R,7S,8R)-13-hydroxy-1,12-dioxo-N-(2,4,6-trifluorobenzyl)-1,3,4,5,6,7,8,12-octahydro-2,8:4,7-dimethanopyrido[1,2-a][1,4]diazecine-11-carboxamide] | 0.968 nM | 0.26 nM | 1.4 nM | 14300 nM
14 | O=C(NCc1ccc(F)c(Cl)c1F)c1cn2c(c(O)c1=O)C(=O)N1CC2CCc2cc(F)c(F)cc21 (centres unmarked) [Example 69, N-(3-chloro-2,4-difluorobenzyl)-2,3-difluoro-7-hydroxy-6,8-dioxo-6,8,13,14-tetrahydro-12H-5,12-methanobenzo[e]pyrido[1,2-a][1,4]diazonine-9-carboxamide] | 1.06 nM | 0.199 nM | 1.95 nM | 36700 nM
15 | O=C(NCc1ccc(F)cc1F)c1cn2c(c(O)c1=O)C(=O)N1Cc3cc(F)c(F)cc3C[C@H]2C1 [Example 89, (6S)—N-(2,4-difluorobenzyl)-9,10-difluoro-1-hydroxy-2,14-dioxo-2,7,12,14-tetrahydro-6H-6,13-methanobenzo[f]pyrido[1,2-a][1,4]diazonine-3-carboxamide] | 4.39 nM | 0.669 nM | 2.38 nM | > 47900 nM
16 | O=C(NCc1ccc(F)c(Cl)c1F)c1cn2c(c(O)c1=O)C(=O)N1CC2CCc2cc(F)ccc21 (centres unmarked) [Example 68, N-(3-chloro-2,4-difluorobenzyl)-2-fluoro-7-hydroxy-6,8-dioxo-6,8,13,14-tetrahydro-12H-5,12-methanobenzo[e]pyrido[1,2-a][1,4]diazonine-9-carboxamide] | 1.17 nM | 0.279 nM | 1.2 nM | 3580 nM
17 | O=C(NCc1ccc(F)cc1F)c1cn2c(c(O)c1=O)C(=O)N1CCCOC[C@@H]2C1 [Example 1-1, (S)-N-(2,4-difluorobenzyl)-13-hydroxy-1,12-dioxo-1,4,5,7,8,12-hexahydro-3H-2,8-methanopyrido[1,2-d][1,4,7]oxadiazecine-11-carboxamide] | 4.85 nM | 3.64 nM | 16.5 nM | > 50000 nM

Source: patent US12227520B2 (priority 2019, dated 2025)
